Reference: ChEMBL document CHEMBL4825684, “Design, synthesis and biological evaluation of N-anthraniloyl tryptamine derivatives as pleiotropic molecules for the therapy of malignant glioma” (Eur J Med Chem, 2021)
The source made the active and inactive calls. The calls are words filed in the database; no cut-off is given here.

What was measured:
U-251 [1] = experiment: Induction of apoptosis in human U-251 cells assessed as early apoptotic cells at 2 uM incubated for 48 hrs by […] double staining based flow cytometry assay (reference value: 0.73%); assay type: functional
[2] = Plasma concentration in Sprague-Dawley rat at 60 mg/kg, ip measured after 2 hrs by LC-MS analysis; assay type: ADME, organism-based
[3] = Toxicity in rat C6 cells inoculated orthotopic Sprague-Dawley rat model assessed as body weight change at 50 mg/kg, ip twice a day administered for 13 days of tumor implantation; assay type: organism-based; details: in vivo, 312 h, time 13 day
[4] = Acute toxicity in Kunming mouse assessed behavioural changes at 1000 mg/kg, ip measured for 14 days; assay type: organism-based; details: in vivo, 336 h, time 14 day
[5] = Acute toxicity in Kunming mouse assessed mortality at 1000 mg/kg, ip measured for 14 days; assay type: organism-based; details: in vivo, 336 h, time 14 day
C6 [6] = experiment: Anxiolytic activity in rat C6 cells inoculated orthotopic Sprague-Dawley rat model assessed as suppression of MMP9 expression in tumor tissue at 50 mg/kg, ip twice a day administered for 13 days of tumor implantation by immunohistochemical staining analysis; assay type: functional, organism-based; details: time 13.0 day
U-87 MG [7] = experiment: Induction of apoptosis in human U-87 MG cells assessed as late apoptotic cells at 8 uM incubated for 48 hrs by […] double staining based flow cytometry assay (reference value: 0.61%); assay type: functional, U-87MG ATCC
U-251 [8] = experiment: Induction of apoptosis in human U-251 cells assessed as viable cells at 4 uM incubated for 48 hrs by […] double staining based flow cytometry assay (reference value: 96.6%); assay type: functional; details: read-out: Activity
U-87 MG [9] = experiment: Induction of apoptosis in human U-87 MG cells assessed as viable cells at 8 uM incubated for 48 hrs by Annexin VIM double staining based flow cytometry assay (reference value: 97.8%); assay type: functional, U-87MG ATCC; details: read-out: Activity
U-251 [10] = experiment: Antiproliferative activity against human U-251 cells assessed as growth inhibition incubated for 72 hrs by CCK-8 assay; assay type: functional, cell-based; details: U-251, 72 h
U-87 MG [11] = experiment: Induction of apoptosis in human U-87 MG cells assessed as early apoptotic cells at 8 uM incubated for 48 hrs by […] double staining based flow cytometry assay (reference value: 0.63%); assay type: functional, U-87MG ATCC
U-251 [12] = experiment: Induction of apoptosis in human U-251 cells assessed as necrotic cells at 2 uM incubated for 48 hrs by […] double staining based flow cytometry assay (reference value: 1.32%); assay type: functional
[13] = molecular target: Tyrosine-protein kinase JAK2 (Homo sapiens) (UniProt O60674); experiment: Inhibition JAK2 phosphorylation in human U-87 MG cells incubated up to 8 hrs by Western blot analysis; assay type: cell-based; details: time hrs <=8
Chain of Tyrosine-protein kinase JAK2 (Homo sapiens) (O60674 whole entry): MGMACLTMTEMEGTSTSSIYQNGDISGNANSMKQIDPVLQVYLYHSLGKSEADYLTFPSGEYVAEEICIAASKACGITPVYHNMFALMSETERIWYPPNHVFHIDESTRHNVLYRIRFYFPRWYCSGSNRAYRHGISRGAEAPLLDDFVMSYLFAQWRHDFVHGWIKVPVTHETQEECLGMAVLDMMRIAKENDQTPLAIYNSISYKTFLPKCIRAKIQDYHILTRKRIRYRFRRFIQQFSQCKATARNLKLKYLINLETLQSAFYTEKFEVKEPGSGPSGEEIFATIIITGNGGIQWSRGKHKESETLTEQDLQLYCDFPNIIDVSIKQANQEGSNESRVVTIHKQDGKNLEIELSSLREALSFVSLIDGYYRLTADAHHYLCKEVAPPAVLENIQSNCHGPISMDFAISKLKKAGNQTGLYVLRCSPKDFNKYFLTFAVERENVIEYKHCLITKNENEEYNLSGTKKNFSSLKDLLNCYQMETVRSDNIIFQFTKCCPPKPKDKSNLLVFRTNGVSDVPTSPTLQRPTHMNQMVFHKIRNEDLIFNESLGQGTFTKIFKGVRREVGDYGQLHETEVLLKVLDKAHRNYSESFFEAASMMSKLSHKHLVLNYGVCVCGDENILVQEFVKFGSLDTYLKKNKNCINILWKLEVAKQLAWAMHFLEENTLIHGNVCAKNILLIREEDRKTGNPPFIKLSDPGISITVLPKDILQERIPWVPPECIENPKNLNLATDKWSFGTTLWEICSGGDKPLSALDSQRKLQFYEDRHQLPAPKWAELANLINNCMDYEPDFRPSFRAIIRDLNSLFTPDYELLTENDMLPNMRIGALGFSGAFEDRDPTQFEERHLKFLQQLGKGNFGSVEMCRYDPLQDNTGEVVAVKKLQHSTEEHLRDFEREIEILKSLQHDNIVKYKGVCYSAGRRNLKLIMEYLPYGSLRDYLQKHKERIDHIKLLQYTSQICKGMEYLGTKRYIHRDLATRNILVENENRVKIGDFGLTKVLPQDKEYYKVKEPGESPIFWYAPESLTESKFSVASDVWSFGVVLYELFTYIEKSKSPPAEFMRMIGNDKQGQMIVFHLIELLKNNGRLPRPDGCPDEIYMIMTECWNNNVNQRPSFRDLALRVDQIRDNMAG

C6 [14] = experiment: Antitumor activity against rat C6 cells inoculated orthotopic Sprague-Dawley rat model assessed as reduction tumor weight at 50 mg/kg, ip twice a day treated 3 days after tumor cell injection measured for 13 days after tumor implantation; assay type: functional, organism-based; details: time 3.0 day
[15] = molecular target: Signal transducer and activator of transcription 3 (Homo sapiens) (UniProt P40763); experiment: Inhibition of STAT3 nuclear translocation in human U251 cells incubated for 24 hrs by Hoechst staining based fluorescence confocal imaging analysis; assay type: cell-based; details: U-251
Chain of Signal transducer and activator of transcription 3 (Homo sapiens) (P40763 whole entry): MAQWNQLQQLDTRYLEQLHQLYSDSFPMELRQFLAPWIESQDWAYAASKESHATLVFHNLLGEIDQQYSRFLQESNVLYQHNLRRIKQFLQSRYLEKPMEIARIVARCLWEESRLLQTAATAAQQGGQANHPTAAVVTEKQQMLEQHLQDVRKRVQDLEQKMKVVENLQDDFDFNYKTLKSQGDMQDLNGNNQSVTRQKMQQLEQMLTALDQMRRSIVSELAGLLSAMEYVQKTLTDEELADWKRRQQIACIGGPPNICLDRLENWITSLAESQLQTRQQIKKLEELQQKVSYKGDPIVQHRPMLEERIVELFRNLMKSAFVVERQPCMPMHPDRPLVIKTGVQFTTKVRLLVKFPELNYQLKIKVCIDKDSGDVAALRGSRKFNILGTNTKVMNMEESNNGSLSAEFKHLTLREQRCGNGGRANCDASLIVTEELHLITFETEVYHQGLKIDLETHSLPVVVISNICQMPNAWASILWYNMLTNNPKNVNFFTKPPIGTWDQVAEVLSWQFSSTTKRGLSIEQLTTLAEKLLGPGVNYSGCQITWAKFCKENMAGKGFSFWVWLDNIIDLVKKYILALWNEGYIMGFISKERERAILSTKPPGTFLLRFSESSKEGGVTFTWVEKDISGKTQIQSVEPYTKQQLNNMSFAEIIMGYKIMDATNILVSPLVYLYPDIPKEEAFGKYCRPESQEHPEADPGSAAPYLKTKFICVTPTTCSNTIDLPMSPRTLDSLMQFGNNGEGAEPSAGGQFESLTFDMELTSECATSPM

U-87 MG [16] = experiment: Induction of apoptosis in human U-87 MG cells assessed as viable cells at 2 uM incubated for 48 hrs by Annexin VIM double staining based flow cytometry assay (reference value: 97.8%); assay type: functional, U-87MG ATCC; details: read-out: Activity
U-251 [17] = experiment: Induction of apoptosis in human U-251 cells assessed as early apoptotic cells at 8 uM incubated for 48 hrs by […] double staining based flow cytometry assay (Rvb+B32 = 0.73%); assay type: functional
U-87 MG [18] = experiment: Antiproliferative activity against human U-87 MG cells assessed as growth inhibition incubated for 72 hrs by CCK-8 assay; assay type: functional, cell-based, U-87MG ATCC
U-251 [19] = experiment: Cell cycle arrest in human U-251 cells assessed as accumulation at G2/M phase at 8 uM incubated for 48 hrs by PI staining based flow cytometry assay (reference value: 11.9%); assay type: functional
[20] = Drug uptake in Sprague-Dawley rat cerebrospinal fluid at 60 mg/kg, ip measured after 2 hrs by LC-MS analysis; assay type: ADME, organism-based; details: read-out: Drug uptake
C6 [21] = experiment: Antitumor activity against rat C6 cells inoculated orthotopic Sprague-Dawley rat model assessed as increase in rat survival at 50 mg/kg, ip twice a day administered for 25 days (reference value: 16%); assay type: functional; details: time 25 day
U-251 [22] = experiment: Antiproliferative activity against human U-251 cells assessed as colony formation ratio at 4 uM measured after 24 hrs by plate clone formation assay relative to control; assay type: functional
[23] = Half life in Sprague-Dawley rat at 60 mg/kg, ip measured up to 24 hrs by LC-MS analysis; assay type: ADME, organism-based; details: in vivo
C6 [24] = experiment: Antitumor activity against rat C6 cells inoculated orthotopic Sprague-Dawley rat model assessed as decrease in PGE2 in tumor tissue at 50 mg/kg, ip twice a day treated 3 days after tumor cell injection measured for 13 days after tumor implantation […]; assay type: functional, organism-based; details: time 3.0 day
[25] = molecular target: Signal transducer and activator of transcription 3 (Homo sapiens) (UniProt P40763); experiment: Inhibition of STAT3 nuclear translocation in human U-87 MG cells incubated for 24 hrs by Hoechst staining based fluorescence confocal imaging analysis; assay type: cell-based
U-251 [26] = experiment: Induction of apoptosis in human U-251 cells assessed as late apoptotic cells at 4 uM incubated for 48 hrs by […] double staining based flow cytometry assay (reference value: 1.39%); assay type: functional
U-87 MG [27] = experiment: Induction of apoptosis in human U-87 MG cells assessed as necrotic cells at 4 uM incubated for 48 hrs by Annexin VIM double staining based flow cytometry assay (reference value: 0.91%); assay type: functional, U-87MG ATCC
U-87 MG [28] = experiment: Induction of apoptosis in human U-87 MG cells assessed as early apoptotic cells at 4 uM incubated for 48 hrs by […] double staining based flow cytometry assay (reference value: 0.63%); assay type: functional, U-87MG ATCC
C6 [29] = experiment: Antitumor activity against rat C6 cells inoculated orthotopic Sprague-Dawley rat model assessed as tumor growth inhibition at 50 mg/kg, ip twice a day treated 3 days after tumor cell injection measured for 13 days after tumor implantation; assay type: functional; details: 72 h, time 3 day, read-out: TGI
C6 [30] = experiment: Antiproliferative activity against rat C6 cells assessed as growth inhibition incubated for 72 hrs by CCK-8 assay; assay type: functional, cell-based; details: C6, 72 h
[31] = molecular target: Signal transducer and activator of transcription 3 (Homo sapiens) (UniProt P40763); experiment: Inhibition STAT3 phosphorylation in human U-251 cells incubated up to 8 hrs by Western blot analysis; assay type: cell-based; details: time hrs <=8
C6 [32] = experiment: Antitumor activity against rat C6 cells inoculated orthotopic Sprague-Dawley rat model assessed as increase in E-cadherin in tumor tissue at 50 mg/kg, ip twice a day treated 3 days after tumor cell injection measured for 13 days after tumor implantation by Western blot analysis; assay type: functional, organism-based; details: time 3.0 day
C6 [33] = experiment: Antitumor activity against rat C6 cells inoculated orthotopic Sprague-Dawley rat model assessed as inhibition of angiogenesis brain tissue at 50 mg/kg, ip twice a day administered for 13 days of tumor implantation; assay type: functional, organism-based; details: time 13.0 day
U-87 MG [34] = experiment: Induction of apoptosis in human U-87 MG cells assessed as increase in cytochrome c release at 1 to 4 uM incubated for 48 hrs by Western blot analysis relative to control; assay type: functional, cell-based; details: U-87MG ATCC, dose 1-4 µM
C6 [35] = experiment: Antitumor activity against rat C6 cells inoculated orthotopic Sprague-Dawley rat model assessed as reduction tumor volume at 50 mg/kg, ip twice a day treated 3 days after tumor cell injection measured for 13 days after tumor implantation; assay type: functional, organism-based; details: time 3.0 day
U-87 MG [36] = experiment: Induction of apoptosis in human U-87 MG cells assessed as necrotic cells at 2 uM incubated for 48 hrs by […] double staining based flow cytometry assay (reference value: 0.91%); assay type: functional, U-87MG ATCC

COc1cc(Nc2ccccc2C(=O)NCCc2c[nH]c3ccccc23)cc(OC)c1OC
Activity (U-251 [1]): 4.93% | concentration at 2 h [2]: 520 ng/mL | Activity [3]: Non-Toxic | Activity [4]: Non-Toxic | Activity [5]: Non-Toxic | Activity (C6 [6]): Active | Activity (U-87 MG [7]): 7.44% | viability at 4 µM (U-251 [8]): 65.5% | viability at 8 µM (U-87 MG [9]): 77.7% | IC50 (U-251 [10]): 1.87 µM | Activity (U-87 MG [11]): 13.8% | Activity (U-251 [12]): 4.28% | inhibition [13]: Active | Activity (C6 [14]): Active | inhibition [15]: Active | viability at 2 µM (U-87 MG [16]): 95.1% | Activity (U-251 [17]): 9.93% | IC50 (U-87 MG [18]): 4.78 µM | Activity (U-251 [19]): 63.7% | concentration at 2 h [20]: 200 ng/mL | Activity (C6 [21]): 66% | Activity (U-251 [22]): 5.33% | half-life [23]: 11.4 h | Activity (C6 [24]): Active | inhibition [25]: Active | Activity (U-251 [26]): 21.8% | Activity (U-87 MG [27]): 1.86% | Activity (U-87 MG [28]): 6.09% | inhibition in vivo at 50 mg/kg (C6 [29]): 66% | IC50 (C6 [30]): 4.23 µM | inhibition [31]: Active | Activity (C6 [32]): Active | Activity (C6 [33]): Active | Activity (U-87 MG [34]): Active | Activity (C6 [35]): Active | Activity (U-87 MG [36]): 1.23%
